Assay results taken from patent publication US8828908B2, “Herbicidally active bicyclic 1,3-dione compounds” (Syngenta Limited, priority 2007, dated 2014).

What was measured:
Assay type in all cases: in vivo
[1] = system: Alopecurus myosuroides (ALOMY); experiment: Example A post-emergence herbicidal glasshouse test; settings: 312 h, evaluated after 13 days, 100=total damage to plant, 0=no damage
Procedure, shortened: (§1)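 Damage rating, 0–100, at 13 d after application. Spray solution: a.i. in acetone/water (50:50), 0.5% Tween 20. Applied 1 d after sowing or at 8 d growth; pots held at 24/16 °C, 14 h light, 65% humidity.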

Solanum nigrum (SOLNI) [2] = experiment: as above; settings: 250 g/ha, evaluated after 13 days, 100=total damage to plant, 0=no damage
Procedure, shortened: as §1

Avena fatua (AVEFA) [3] = experiment: as above; settings: 312 h, evaluated after 13 days, 100=total damage to plant, 0=no damage
Procedure, shortened: as §1

[4] = system: Echinochloa crus-galli (ECHCG); experiment: as above; settings: 312 h, evaluated after 13 days, 100=total damage to plant, 0=no damage
Procedure, shortened: as §1

Setaria faberi (SETFA) [5] = experiment: as above; settings: 312 h, evaluated after 13 days, 100=total damage to plant, 0=no damage
Procedure, shortened: as §1

[6] = system: Amaranthus retroflexus (AMARE); experiment: as above; settings: 312 h, evaluated after 13 days, 100=total damage to plant, 0=no damage
Procedure, shortened: as §1

[7] = system: Alopecurus myosuroides (ALOMY); experiment: Example A pre-emergence herbicidal glasshouse test; settings: 312 h, Rate 250 g/ha, evaluated after 13 days, 100=total damage to plant, 0=no damage to plant
Procedure, shortened: as §1

Solanum nigrum (SOLNI) [8] = experiment: Example A pre-emergence herbicidal glasshouse test; settings: Rate 250 g/ha, evaluated after 13 days, 100=total damage to plant, 0=no damage to plant
Procedure, shortened: as §1

Avena fatua (AVEFA) [9] = experiment: Example A pre-emergence herbicidal glasshouse test; settings: 312 h, Rate 250 g/ha, evaluated after 13 days, 100=total damage to plant, 0=no damage to plant
Procedure, shortened: as §1

[10] = system: Echinochloa crus-galli (ECHCG); experiment: Example A pre-emergence herbicidal glasshouse test; settings: 312 h, Rate 250 g/ha, evaluated after 13 days, 100=total damage to plant, 0=no damage to plant
Procedure, shortened: as §1

Setaria faberi (SETFA) [11] = experiment: Example A pre-emergence herbicidal glasshouse test; settings: 312 h, Rate 250 g/ha, evaluated after 13 days, 100=total damage to plant, 0=no damage to plant
Procedure, shortened: as §1

[12] = system: Amaranthus retroflexus (AMARE); experiment: Example A pre-emergence herbicidal glasshouse test; settings: 312 h, Rate 250 g/ha, evaluated after 13 days, 100=total damage to plant, 0=no damage to plant
Procedure, shortened: as §1

[13] = system: Alopecurus myosuroides (ALOMY); experiment: Example B pre-emergence herbicidal greenhouse test; settings: 480 h, evaluated after 20 days, 100=total damage to plant, 0=no damage
Procedure, shortened: (§2)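 Spray of formulated compound 1 day after sowing (pre-emergence) or onto seedlings 10 days after sowing (post-emergence); greenhouse growth under optimum conditions; evaluation at 20 days (pre) or 15 days (post), 0-100 damage.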

Avena fatua (AVEFA) [14] = experiment: Example B pre-emergence herbicidal greenhouse test; settings: 480 h, evaluated after 20 days, 100=total damage to plant, 0=no damage
Procedure, shortened: as §2

[15] = system: Echinochloa crus-galli (ECHCG); experiment: Example B pre-emergence herbicidal greenhouse test; settings: 480 h, evaluated after 20 days, 100=total damage to plant, 0=no damage
Procedure, shortened: as §2

Lolium perenne (LOLPE) [16] = experiment: Example B pre-emergence herbicidal greenhouse test; settings: 480 h, evaluated after 20 days, 100=total damage to plant, 0=no damage
Procedure, shortened: as §2

[17] = system: Digitaria sanguinalis (DIGSA); experiment: Example B pre-emergence herbicidal greenhouse test; settings: 480 h, evaluated after 20 days, 100=total damage to plant, 0=no damage
Procedure, shortened: as §2

Setaria faberi (SETFA) [18] = experiment: Example B pre-emergence herbicidal greenhouse test; settings: 480 h, evaluated after 20 days, 100=total damage to plant, 0=no damage
Procedure, shortened: as §2

[19] = system: Alopecurus myosuroides (ALOMY); experiment: Example B post-emergence herbicidal greenhouse test; settings: 360 h, evaluated after 15 days, 100=total damage to plant, 0=no damage
Procedure, shortened: as §2

Avena fatua (AVEFA) [20] = experiment: as above; settings: 360 h, evaluated after 15 days, 100=total damage to plant, 0=no damage
Procedure, shortened: as §2

[21] = system: Echinochloa crus-galli (ECHCG); experiment: as above; settings: 360 h, evaluated after 15 days, 100=total damage to plant, 0=no damage
Procedure, shortened: as §2

Lolium perenne (LOLPE) [22] = experiment: as above; settings: 360 h, evaluated after 15 days, 100=total damage to plant, 0=no damage
Procedure, shortened: as §2

[23] = system: Digitaria sanguinalis (DIGSA); experiment: as above; settings: 360 h, evaluated after 15 days, 100=total damage to plant, 0=no damage
Procedure, shortened: as §2

Setaria faberi (SETFA) [24] = experiment: as above; settings: 360 h, evaluated after 15 days, 100=total damage to plant, 0=no damage
Procedure, shortened: as §2

Compound | pest or weed control at 250 g/ha [1] [%] | SOLNI damage to plant (Solanum nigrum (SOLNI) [2]) | pest or weed control at 250 g/ha (Avena fatua (AVEFA) [3]) [%] | pest or weed control at 250 g/ha [4] [%] | pest or weed control at 250 g/ha (Setaria faberi (SETFA) [5]) [%] | pest or weed control at 250 g/ha [6] [%] | pest or weed control at 250 g/ha [7] [%] | SOLNI damage to plant (Solanum nigrum (SOLNI) [8]) | pest or weed control at 250 g/ha (Avena fatua (AVEFA) [9]) [%] | pest or weed control at 250 g/ha [10] [%] | pest or weed control at 250 g/ha (Setaria faberi (SETFA) [11]) [%] | pest or weed control at 250 g/ha [12] [%] | pest or weed control at 250 g/ha [13] [%] | pest or weed control at 250 g/ha (Avena fatua (AVEFA) [14]) [%] | pest or weed control at 250 g/ha [15] [%] | pest or weed control at 250 g/ha (Lolium perenne (LOLPE) [16]) [%] | pest or weed control at 250 g/ha [17] [%] | pest or weed control at 250 g/ha (Setaria faberi (SETFA) [18]) [%] | pest or weed control at 125 g/ha [19] [%] | pest or weed control at 125 g/ha (Avena fatua (AVEFA) [20]) [%] | further results
Cc1ccc(-c2ccccc2F)cc1C1=C(O)[C@H]2CC[C@H](C2)C1=O (single isomer, unassigned) [Compound T16] | 0 | 0 | 0 | 0 | 0 | 0 | 0 | 0 | 0 | 0 | 0 | 0 |  |  |  |  |  |  |  |  | 
CCc1ccc(-c2ccc(Cl)cc2)cc1C1=C(O)[C@H]2CC[C@H](C2)C1=O [Compound T4, 3-(4′-chloro-4-ethylbiphen-3-yl)bicyclo[3.2.1]octane-2,4-dione] | 90 | 0 | 100 | 100 | 100 | 0 | 50 | 0 | 50 | 100 | 90 | 0 | 100 | 80 | 100 | 100 | 100 | 100 | 80 | 100 | pest or weed control at 125 g/ha [21]: 100%; pest or weed control at 125 g/ha (Lolium perenne (LOLPE) [22]): 100%; pest or weed control at 125 g/ha [23]: 100%; pest or weed control at 125 g/ha (Setaria faberi (SETFA) [24]): 100%
Cc1ccc(-c2cccc(F)c2)cc1C1=C(O)[C@H]2CC[C@H](C2)C1=O (single isomer, unassigned) [Compound T13] | 0 | 0 | 0 | 10 | 0 | 0 | 0 | 0 | 0 | 0 | 0 | 0 |  |  |  |  |  |  |  |  | 
CCc1ccc(-c2ccc(Cl)c(F)c2)cc1C1=C(O)[C@H]2CC[C@H](C2)C1=O (single isomer, unassigned) [Compound T36] | 90 |  | 100 | 100 | 100 | 0 | 70 |  | 50 | 100 | 100 | 0 | 70 | 60 | 100 | 90 | 100 | 90 | 80 | 100 | pest or weed control at 125 g/ha [21]: 100%; pest or weed control at 125 g/ha (Lolium perenne (LOLPE) [22]): 30%; pest or weed control at 125 g/ha [23]: 100%; pest or weed control at 125 g/ha (Setaria faberi (SETFA) [24]): 100%
Cc1ccc(-c2ccc(Cl)cc2)cc1C1=C(O)[C@H]2CC[C@H](C2)C1=O [Compound T1, 3-(4′-chloro-4-methylbiphen-3-yl)bicyclo[3.2.1]octane-2,4-dione] | 80 | 20 | 90 | 100 | 100 | 50 | 50 | 0 | 40 | 90 | 90 | 0 | 80 | 30 | 100 | 100 | 50 | 100 | 50 | 30 | pest or weed control at 125 g/ha [21]: 90%; pest or weed control at 125 g/ha (Lolium perenne (LOLPE) [22]): 50%; pest or weed control at 125 g/ha [23]: 90%; pest or weed control at 125 g/ha (Setaria faberi (SETFA) [24]): 90%
